Results: patent publication US20240218342A1, “SITE-SPECIFIC GLYCAN REMODELING OF LYSOSOMAL ENZYMES AND APPLICATIONS THEREOF” (priority 2021, published 2024)
“Also recorded” adds a separate entry of the source.

What was measured:
CI-MPR = CI-MPR (Homo sapiens, UniProt P11717); settings: previous studies; read-out: apparent KD; cited from earlier work
[1] = tested on: GAA-deficient multinucleated myotubes (KO); assay: Cell-associated GAA activity in treated GAA KO myotubes; format: cell-based, mouse; settings: 5 μM for 24 hours, compared to untreated cells
Description: (§1) Muscle cell culture, treatment, processing, and analysis. The biological effect of the Endo-A (69) and Endo-F3 (70) remodeled rhGAA was investigated in an in vitro model of Pompe disease.^[11, 12] The myoblasts are grown on Matrigel (Corning; 354234)-coated 6-well plates at 33° C. in an atmosphere of 5% CO2 in proliferation medium [20% fetal bovine serum, 10% horse serum, 1% chick embryo extract, recombinant IFN-γ (100 U/mL; Life Technologies), 1× penicillin/streptomycin/L-glutamine in high-glucose (4.5 g/L) DMEM]. When the cells reach 70-80% confluency (3-4 days), the medium is switched to differentiation medium [DMEM containing 2% horse serum, 0.5% chick embryo extract, recombinant human insulin (10 μg/mL, Life Technologies, 12585-014), 1× penicillin/streptomycin/L-glutamine], and the cells are moved to 37° C. in an atmosphere of 5% CO2. Myotubes begin to form within 3-4 days; they can survive for ˜ 8-10 days in culture until they start twitching and detach from the surface. […]
Measurement of cell-associated GAA activity. The GAA activity in the cells was measured by using 4-methylumbelliferyl-α-D-glucopyranoside (4-MU-α-glucopyranoside; Sigma-Aldrich #M9766) as the fluorogenic GAA substrate as described.^[13] […] Fluorescence was measured on a multi-label plate reader (TECAN, SPARK 10M) at 360 nm excitation/465 nm emission.

[2] = tested on: GAA-deficient multinucleated myotubes (KO); assay: Western blotting of treated GAA KO myotube lysates; format: cell-based, mouse; settings: 5 μM for 24 hours
Description: as §1
Western blotting. […] Protein concentrations of the supernatants were measured using the Bio-Rad Protein Assay (Bio-Rad Laboratories, Inc.), and equal amounts of protein were run on SDS-PAGE gels (Invitrogen, Carlsbad, CA). […]

[3] = tested on: GAA-deficient multinucleated myotubes (KO); assay: LAMP1 immunofluorescence (lysosomal swelling) in GAA KO myotubes; format: cell-based, mouse; settings: 5 μM for 24 hours, confocal images
Description: Muscle cell culture, treatment, processing, and analysis. The biological effect of the Endo-A (69) and Endo-F3 (70) remodeled rhGAA was investigated in an in vitro model of Pompe disease.^[11, 12] The myoblasts are grown on Matrigel (Corning; 354234)-coated 6-well plates at 33° C. in an atmosphere of 5% CO2 in proliferation medium [20% fetal bovine serum, 10% horse serum, 1% chick embryo extract, recombinant IFN-γ (100 U/mL; Life Technologies), 1× penicillin/streptomycin/L-glutamine in high-glucose (4.5 g/L) DMEM]. When the cells reach 70-80% confluency (3-4 days), the medium is switched to differentiation medium [DMEM containing 2% horse serum, 0.5% chick embryo extract, recombinant human insulin (10 μg/mL, Life Technologies, 12585-014), 1× penicillin/streptomycin/L-glutamine], and the cells are moved to 37° C. in an atmosphere of 5% CO2. Myotubes begin to form within 3-4 days; they can survive for ˜ 8-10 days in culture until they start twitching and detach from the surface.
The commercial rhGAA, Endo-A- or Endo-F3 remodeled rhGAA were added to the myotubes (on day 8 in differentiation medium) at a concentration of 5 μM for 24 hours; n=5 independent experiments for each condition. Wild type (WT) immortalized myotubes and untreated KO myotubes were used for comparison. The cells were homogenized on ice in deionized H2O, sonicated, and centrifuged at 18,000×g at 4° ° C. for 15 min. […]

Sequence of CI-MPR (P11717 41-2491, species assumed): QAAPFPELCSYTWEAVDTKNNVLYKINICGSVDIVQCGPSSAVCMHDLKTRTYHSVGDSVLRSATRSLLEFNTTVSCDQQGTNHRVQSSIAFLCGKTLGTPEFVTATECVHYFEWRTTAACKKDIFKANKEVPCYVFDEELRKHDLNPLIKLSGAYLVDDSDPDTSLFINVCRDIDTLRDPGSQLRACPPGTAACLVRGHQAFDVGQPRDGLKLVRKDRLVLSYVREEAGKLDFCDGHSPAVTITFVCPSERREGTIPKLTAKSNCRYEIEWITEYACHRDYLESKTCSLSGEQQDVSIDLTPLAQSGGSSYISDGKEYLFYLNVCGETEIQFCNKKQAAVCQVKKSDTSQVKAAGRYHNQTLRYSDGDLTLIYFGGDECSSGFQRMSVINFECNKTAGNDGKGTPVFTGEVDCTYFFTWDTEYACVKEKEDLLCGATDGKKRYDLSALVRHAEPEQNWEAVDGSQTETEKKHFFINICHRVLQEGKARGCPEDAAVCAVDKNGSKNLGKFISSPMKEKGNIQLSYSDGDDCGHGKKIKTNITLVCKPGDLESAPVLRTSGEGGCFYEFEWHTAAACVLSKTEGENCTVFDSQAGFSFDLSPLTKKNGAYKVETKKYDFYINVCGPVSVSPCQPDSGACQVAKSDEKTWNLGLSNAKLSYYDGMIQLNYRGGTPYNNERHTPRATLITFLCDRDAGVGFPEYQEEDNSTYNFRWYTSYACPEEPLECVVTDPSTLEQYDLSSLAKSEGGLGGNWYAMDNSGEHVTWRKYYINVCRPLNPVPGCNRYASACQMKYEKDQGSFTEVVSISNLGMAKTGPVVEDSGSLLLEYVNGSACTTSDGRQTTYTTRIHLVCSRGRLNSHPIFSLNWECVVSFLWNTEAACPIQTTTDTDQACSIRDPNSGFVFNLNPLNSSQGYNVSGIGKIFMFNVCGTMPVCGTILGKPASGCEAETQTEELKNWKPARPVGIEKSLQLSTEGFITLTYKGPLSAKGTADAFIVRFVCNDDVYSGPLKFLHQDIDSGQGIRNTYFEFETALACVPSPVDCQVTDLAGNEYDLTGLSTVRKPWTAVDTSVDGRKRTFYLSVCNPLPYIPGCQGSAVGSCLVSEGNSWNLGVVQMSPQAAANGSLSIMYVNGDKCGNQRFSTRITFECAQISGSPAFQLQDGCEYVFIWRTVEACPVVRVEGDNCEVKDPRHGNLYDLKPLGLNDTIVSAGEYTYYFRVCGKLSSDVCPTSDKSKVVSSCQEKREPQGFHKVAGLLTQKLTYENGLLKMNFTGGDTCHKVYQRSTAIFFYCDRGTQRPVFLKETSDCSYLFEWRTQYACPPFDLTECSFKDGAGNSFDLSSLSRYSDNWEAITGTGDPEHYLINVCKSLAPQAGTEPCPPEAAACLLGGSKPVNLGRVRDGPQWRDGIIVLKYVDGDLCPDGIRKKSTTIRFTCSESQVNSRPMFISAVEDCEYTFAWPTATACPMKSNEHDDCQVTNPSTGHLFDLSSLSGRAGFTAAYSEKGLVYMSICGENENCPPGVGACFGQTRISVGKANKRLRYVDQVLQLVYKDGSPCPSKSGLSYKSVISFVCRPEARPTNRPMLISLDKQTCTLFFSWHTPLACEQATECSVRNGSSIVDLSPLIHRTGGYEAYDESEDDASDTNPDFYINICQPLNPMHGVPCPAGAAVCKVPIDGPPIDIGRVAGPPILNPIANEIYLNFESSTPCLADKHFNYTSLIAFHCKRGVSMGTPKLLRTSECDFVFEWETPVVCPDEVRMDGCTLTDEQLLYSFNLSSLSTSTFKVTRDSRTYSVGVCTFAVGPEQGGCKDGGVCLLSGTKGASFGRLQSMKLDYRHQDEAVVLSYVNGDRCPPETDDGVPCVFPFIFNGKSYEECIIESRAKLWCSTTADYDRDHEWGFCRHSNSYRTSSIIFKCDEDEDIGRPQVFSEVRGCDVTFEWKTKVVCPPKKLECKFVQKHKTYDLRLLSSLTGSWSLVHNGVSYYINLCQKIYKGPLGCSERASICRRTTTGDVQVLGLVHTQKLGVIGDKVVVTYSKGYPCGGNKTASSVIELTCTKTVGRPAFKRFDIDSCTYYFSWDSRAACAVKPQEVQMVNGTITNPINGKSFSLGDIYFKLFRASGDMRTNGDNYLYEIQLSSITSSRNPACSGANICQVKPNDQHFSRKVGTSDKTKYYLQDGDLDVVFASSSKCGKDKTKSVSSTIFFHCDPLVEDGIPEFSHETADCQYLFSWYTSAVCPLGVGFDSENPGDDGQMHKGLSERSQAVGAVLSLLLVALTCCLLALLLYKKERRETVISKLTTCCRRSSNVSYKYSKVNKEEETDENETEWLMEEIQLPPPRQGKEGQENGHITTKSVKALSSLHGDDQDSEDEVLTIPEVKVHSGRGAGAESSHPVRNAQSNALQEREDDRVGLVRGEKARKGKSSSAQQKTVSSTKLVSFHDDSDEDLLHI

In the case of “ATB200: novel rhGAA carrying a higher M6P content that binds the CI-MPR with high affinity (previous studies)”, the Kd (CI-MPR) is listed as 2 to 4 nM.

With “Lumizyme: recombinant human acid α-glucosidase (alglucosidase alfa, Genzyme), therapeutic lysosomal enzyme for Pompe disease” the “GAA activity in cell lysates (cellular uptake)” value [1] was “only a slight increase (statistically insignificant)”, the “levels of endosomal (Rab5) and lysosomal (LAMP1) markers” value ([2]; Western blot) was “remained the same as in the untreated GAA-deficient cells” and the “processed, mature lysosomal form of rhGAA (76 kDa) in cells” value ([2]; Western blot with anti-human GAA antibodies) was “barely detectable”. The “enlarged LAMP1-positive lysosomes” value [3] was “Enlarged lysosomes were seen; also recorded: can be detected; also recorded: contain enlarged LAMP1-positive lysosomes”.
